Data published in patent US20210395256A1, “TYROSINE KINASE INHIBITORS, COMPOSITIONS AND METHODS THERE OF” (Betta Pharmaceuticals Co., Ltd., priority 2018, published 2021).
Read-outs that look alike come from different tables or passages of the source.

Tests used:
NTRK1-G595R = NTRK1-G595R (Homo sapiens, UniProt P04629, G595R); test: NTRK1-G595R cell proliferation assay (Table 13); assay type: cell-based
Ba/F3-TPM3-NTRK1 = target: T1, Ba/F3-TPM3-NTRK1 (Homo sapiens, UniProt P04629); test: Ba/F3-TPM3-NTRK1 cells proliferation assay; assay type: cell-based; settings: 72 h, CellTiter Glo
T1 construct: expressed in transfected cells; host or cells: Ba/F3; the other entry of the earlier key: TPM3 (P06753, Tropomyosin alpha-3 chain)
T1 sequence (P04629 510-796 limits assumed): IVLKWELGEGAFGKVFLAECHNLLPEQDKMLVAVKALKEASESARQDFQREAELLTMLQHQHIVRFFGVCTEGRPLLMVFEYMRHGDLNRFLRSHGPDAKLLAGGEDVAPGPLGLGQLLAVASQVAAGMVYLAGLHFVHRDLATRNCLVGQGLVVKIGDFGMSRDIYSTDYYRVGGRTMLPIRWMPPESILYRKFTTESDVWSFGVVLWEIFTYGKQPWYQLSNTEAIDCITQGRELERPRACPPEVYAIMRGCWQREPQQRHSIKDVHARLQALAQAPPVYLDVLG
Method: (§1) Example 202 Ba/F3-TPM3-NTRK1 and Ba/F3-ETV6-NTRK3 cells proliferation assay
(§2) Cell line: Ba/F3 cells with TPM3-NTRK1 or ETV6-NTRK3 fusion mutation gene stably overexpressed named Ba/F3-TPM3-NTRK1 and Ba/F3-ETV6-NTRK3.
(§3) RPMI 1640 and 10% FBS and 1% PS and 2 ug/mL puromycin.
(§4) b) Collect cell to a 15 mL centrifuged tube, centrifuge at 1000 rpm for 5 min. Discard the supernatant, count, and make the cell density at 1.49×10^4 cells/mL, then place it in a 37° C., 5% CO2 incubator.
(§5) a) The test compound (20 mM stock solution) was diluted to 60 μM with 100% DMSO as starting concentration then 3-fold serial diluted with “9+0” concentrations. in a 96-well dilution plate (Thermo, Cat. No. 249944);
(§6) b) The above compound solution was diluted 1:20 times with culture medium to prepare a 10 fold working solution;
(§7) a) Take cells in log phase growth, centrifuge at 1000 rpm for 5 min, then resuspend the cells with culture medium, then count cells;
(§8) b) Cells were seeded to 96-well cell culture plate with density at 2000 cells/well;
(§9) a) Compounds prepared at step 2 were added to cell plate with 15 μL per well, the final concentrations were 300, 100, 33.33, 11.11, 3.70, 1.23, 0.41, 0.14, 0.05 and 0 nM, and the final concentration of DMSO was 0.5%. The blank control well was a culture medium (0.5% DMSO);
(§10) c) The cells were incubated for an additional 72 h in the incubator.
(§11) a) Remove the 96-well cell culture plate and add 50 μl of CTG reagent (CellTiter Glo kit, promega, Cat #G7573).
(§12) b) Plate was shaked for 2 min and then let it cool for 30 min at room temperature.
(§13) c) The Luminescence signal value was read using a PerkinElmer reader.
(§14) Experimental Data Analysis
(§15) Data were analyzed using GraphPad Prism 6.0 software to obtain a fitted curve of compound activity.
(§16) Fit the Compound IC50 from non-linear regression equation:
(§17) Y=Bottom+(Top-Bottom)/(1+10^((Log IC50-X)×HillSlope));
(§18) X: The log of the concentration of the compound; Y: Luminescence value.

TrkA kinase = TrkA kinase (Homo sapiens, UniProt P04629); test: TrkA kinase assay (mobility shift assay); assay type: biochemical; settings: read-out: Trk A Kinase IC50
Chain of TrkA kinase (P04629 33-796): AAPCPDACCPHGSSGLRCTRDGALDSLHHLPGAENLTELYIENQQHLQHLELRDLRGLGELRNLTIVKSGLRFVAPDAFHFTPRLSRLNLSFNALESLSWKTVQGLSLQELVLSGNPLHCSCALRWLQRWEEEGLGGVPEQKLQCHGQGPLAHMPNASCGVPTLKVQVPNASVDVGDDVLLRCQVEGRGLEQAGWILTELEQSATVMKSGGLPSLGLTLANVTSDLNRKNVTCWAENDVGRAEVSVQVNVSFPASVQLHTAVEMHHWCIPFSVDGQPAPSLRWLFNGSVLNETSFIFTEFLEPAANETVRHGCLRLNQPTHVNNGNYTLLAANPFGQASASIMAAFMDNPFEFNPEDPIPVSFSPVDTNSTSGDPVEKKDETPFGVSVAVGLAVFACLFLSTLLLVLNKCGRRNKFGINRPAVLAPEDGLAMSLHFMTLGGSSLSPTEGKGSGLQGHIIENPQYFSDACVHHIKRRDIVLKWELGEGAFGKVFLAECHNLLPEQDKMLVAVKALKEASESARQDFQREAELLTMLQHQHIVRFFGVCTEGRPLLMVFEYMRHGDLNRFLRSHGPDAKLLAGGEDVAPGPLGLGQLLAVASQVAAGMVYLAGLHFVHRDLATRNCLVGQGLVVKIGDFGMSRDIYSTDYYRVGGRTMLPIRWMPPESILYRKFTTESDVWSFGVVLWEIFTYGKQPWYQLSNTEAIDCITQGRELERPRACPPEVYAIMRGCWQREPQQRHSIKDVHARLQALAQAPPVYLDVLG
Procedure, shortened: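 Ten-point compound series was preincubated 10 min at room temperature with TrkA, then FAM-peptide plus ATP added in HEPES pH 7.5/Brij-35 buffer and reacted at 28 °C before EDTA quench.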

Ba/F3-ETV6-NTRK3 = target: T2, Ba/F3-ETV6-NTRK3 (Homo sapiens, UniProt Q16288); test: Ba/F3-ETV6-NTRK3 cells proliferation assay; assay type: cell-based; settings: 72 h, CellTiter Glo
T2 construct: Ba/F3 cells with TPM3-NTRK1 or ETV6-NTRK3 fusion mutation gene stably overexpressed named Ba/F3-TPM3-NTRK1 and Ba/F3-ETV6-NTRK3; fused on or other part: P41212 (Transcription factor ETV6)
T2 sequence (Q16288 whole entry, the tested form may be a part): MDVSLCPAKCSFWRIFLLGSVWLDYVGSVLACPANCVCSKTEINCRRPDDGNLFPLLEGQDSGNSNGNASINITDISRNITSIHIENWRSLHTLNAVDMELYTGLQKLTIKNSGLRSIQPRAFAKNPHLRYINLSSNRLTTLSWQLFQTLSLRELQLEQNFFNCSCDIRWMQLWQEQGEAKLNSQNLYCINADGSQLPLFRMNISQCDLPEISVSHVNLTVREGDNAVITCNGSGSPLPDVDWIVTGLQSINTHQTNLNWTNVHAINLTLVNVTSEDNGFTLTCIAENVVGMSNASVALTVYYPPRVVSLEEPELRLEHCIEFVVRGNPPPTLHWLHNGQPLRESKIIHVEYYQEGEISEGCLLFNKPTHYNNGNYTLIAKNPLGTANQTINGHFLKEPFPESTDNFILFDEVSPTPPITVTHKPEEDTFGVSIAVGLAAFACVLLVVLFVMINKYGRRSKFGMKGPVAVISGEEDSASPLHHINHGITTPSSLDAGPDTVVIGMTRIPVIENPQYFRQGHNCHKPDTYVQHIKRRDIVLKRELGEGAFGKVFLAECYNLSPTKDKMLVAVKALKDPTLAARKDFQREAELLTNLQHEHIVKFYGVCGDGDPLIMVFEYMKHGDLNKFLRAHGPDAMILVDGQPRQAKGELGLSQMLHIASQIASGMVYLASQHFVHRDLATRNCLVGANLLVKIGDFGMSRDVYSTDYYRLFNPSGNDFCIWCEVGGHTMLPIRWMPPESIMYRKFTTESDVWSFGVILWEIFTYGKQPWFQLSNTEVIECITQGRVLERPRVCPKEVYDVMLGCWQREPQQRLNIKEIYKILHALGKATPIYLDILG
Method: as §1, §2, §3, §4, §5, §6, §7, §8, §9, §10, §11, §12, §13, §14, §15, §16, §17, §18

[1] = Liver microsomes metabolic stability assay, human; assay type: in vitro ADME; settings: human liver microsomes 0.5 mg/mL, 37° C.; for half-life at 2 μM: read-out: t1/2 Human
Procedure, shortened: (§19)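 Pooled human, male rat or male mouse liver microsomes (0.5 mg/mL final) incubated at 37° C with 2 μM compound, with or without 1 mM NADPH. Samples at 0-60 min quenched in cold acetonitrile and analyzed by LC-MS/MS in duplicate. t1/2 derived from ln(% remaining) vs time slope, converted to CLint (μL/min/mg).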

[2] = Liver microsomes metabolic stability assay, rat; assay type: in vitro ADME; settings: male, rat liver microsomes 0.5 mg/mL, 37° C.; for half-life at 2 μM: read-out: t1/2 Rat
Procedure, shortened: as §19

[3] = Liver microsomes metabolic stability assay, mouse; assay type: in vitro ADME; settings: male, mouse liver microsomes 0.5 mg/mL, 37° C.; for half-life at 2 μM: read-out: t1/2 Mouse
Procedure, shortened: as §19

Chain of NTRK1-G595R (P04629 33-796 G595R): as the sequence (P04629 33-796) above, with G563R counted along it

SMILES | IC50 (NTRK1-G595R) [nM] | IC50 (Ba/F3-TPM3-NTRK1) [nM] | IC50 (TrkA kinase; numeric values) [nM] | IC50 (Ba/F3-ETV6-NTRK3) [nM] | microsomal CLint at 2 μM [1] [µL/min/mg] | half-life at 2 μM [1] [min] | microsomal CLint at 2 μM [2] [µL/min/mg] | half-life at 2 μM [2] [min] | microsomal CLint at 2 μM [3] [µL/min/mg] | half-life at 2 μM [3] [min] | IC50 (TrkA kinase; class symbols) [nM]
N#Cc1cc2nc(-c3cnn4ccc(N5CCC[C@@H]5c5cc(F)ccc5F)nc34)[nH]c2cc1OC(F)F [Compound 156, (R)-6-(difluoromethoxy)-2-(5-(2-(2,5-difluorophenyl)pyrrolidin-1-yl)pyrazolo[1,5-a]pyrimidin-3-yl)-1H-benzo[d]imidazole-5-carbonitrile] | 183 | 3.92 | 4.8 | 5.65 | – | – | – | – | – | – | –
C[S+]([O-])c1cc2nc(-c3cnn4ccc(N5CCC[C@@H]5c5cc(F)ccc5F)nc34)[nH]c2cc1C#N (stereo partly drawn) [Compound 171, 2-(5-((R)-2-(2,5-difluorophenyl)pyrrolidin-1-yl)pyrazolo[1,5-a]pyrimidin-3-yl)-5-(methylsulfinyl)-1H-benzo[d]imidazole-6-carbonitrile] | 216 | 3.41 | 1 | 2.63 | 45.4 | 30.5 | 58.2 | 23.8 | 71.2 | 19.5 | –
CS(=O)(=O)c1cc2nc(-c3cnn4ccc(N5CCC[C@@H]5c5cc(F)ccc5F)nc34)[nH]c2cc1C#N [Compound 172, (R)-2-(5-(2-(2,5-difluorophenyl)pyrrolidin-1-yl)pyrazolo[1,5-a]pyrimidin-3-yl)-5-(methylsulfonyl)-1H-benzo[d]imidazole-6-carbonitrile] | 257 | 2.08 | 0.6 | 2.49 | 41.6 | 33.3 | 44.8 | 30.9 | 32.4 | 42.8 | –
CS(=O)(=O)c1cc2nc(-c3cnn4ccc(N5CCC[C@@H]5c5cc(F)ccc5F)nc34)[nH]c2cc1C(N)=O [Compound 173, (R)-2-(5-(2-(2,5-difluorophenyl)pyrrolidin-1-yl)pyrazolo[1,5-a]pyrimidin-3-yl)-5-(methylsulfonyl)-1H-benzo[d]imidazole-6-carboxamide] | 89.8 | 2.19 | – | – | 46.6 | 29.7 | 45.2 | 30.7 | 97.6 | 14.2 | ≤ 10

Molecules with a lower IC50 (NTRK1-G595R), results first:

IC50 (NTRK1-G595R) [nM] | IC50 (Ba/F3-TPM3-NTRK1) [nM] | IC50 (TrkA kinase; numeric values) [nM] | IC50 (Ba/F3-ETV6-NTRK3) [nM] | microsomal CLint at 2 μM [1] [µL/min/mg] | half-life at 2 μM [1] [min] | microsomal CLint at 2 μM [2] [µL/min/mg] | half-life at 2 μM [2] [min] | microsomal CLint at 2 μM [3] [µL/min/mg] | half-life at 2 μM [3] [min] | IC50 (TrkA kinase; class symbols) [nM] | SMILES
81.8 | 2.19 | 1.5 | 1.56 | 1.2 | 1160 | 3.6 | 385 | 14 | 99 | – | N#Cc1cc2nc(-c3cnn4ccc(N5CCC[C@@H]5c5cc(F)ccc5F)nc34)[nH]c2cc1C#N [Compound 148, (R)-2-(5-(2-(2,5-difluorophenyl)pyrrolidin-1-yl)pyrazolo[1,5-a]pyrimidin-3-yl)-1H-benzo[d]imidazole-5,6-dicarbonitrile]
46.6 | 1.38 | 1.1 | 2.21 | 17.2 | 80.6 | 15 | 92.4 | 16.4 | 84.5 | – | COc1cc2nc(-c3cnn4ccc(N5CCC[C@@H]5c5cc(F)ccc5F)nc34)[nH]c2cc1C#N [Compound 125, (R)-2-(5-(2-(2,5-difluorophenyl)pyrrolidin-1-yl)pyrazolo[1,5-a]pyrimidin-3-yl)-5-methoxy-1H-benzo[d]imidazole-6-carbonitrile]
18.2 | 1.2 | 0.6 | 0.53 | – | – | – | – | – | – | – | COC(=O)c1cc2nc(-c3cnn4ccc(N5CCC[C@@H]5c5cc(F)ccc5F)nc34)[nH]c2cc1OC [Compound 155, methyl (R)-2-(5-(2-(2,5-difluorophenyl)pyrrolidin-1-yl)pyrazolo[1,5-a]pyrimidin-3-yl)-6-methoxy-1H-benzo[d]imidazole-5-carboxylate]
15.6 | 1.06 | 0.43 | 2.05 | 56.2 | 24.7 | 92.4 | 15 | 105 | 13.2 | – | CNC(=O)c1cc2nc(-c3cnn4ccc(N5CCC[C@@H]5c5cc(F)ccc5F)nc34)[nH]c2cc1OC [Compound 160, (R)-2-(5-(2-(2,5-difluorophenyl)pyrrolidin-1-yl)pyrazolo[1,5-a]pyrimidin-3-yl)-6-methoxy-N-methyl-1H-benzo[d]imidazole-5-carboxamide]
